Experimental data from PubChem BioAssay AID1918947 (Molecular Pharmacology Branch, DTP, NCI, 2023).
“And” between values parts separate entries of the source, which are not always exact repeats. Equal values may be shown once.

Tested on: A498 complex spheroid viability
Test: Anticancer human tumor A498 cell line growth inhibition;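 note: spheroids exposed to agents for seven days before readout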;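 for viability, T/C: 100% = DMSO vehicle-treated spheroids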
Conditions: for viability, T/C: stronger effect = lower value
Method in brief: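 Multicellular complex spheroids of tumor cells with human endothelial cells (HUVEC) and mesenchymal stem cells; the LSD1 inhibitor iadademstat was combined with standard-of-care or investigational agents. Top concentration at or near clinical Cmax, half-log dilutions; final DMSO ≤0.25%.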

[1] = curve of first compound, second compound 0.1 µM
[2] = curve of first compound, second compound 0.316 µM
[3] = curve of first compound, second compound 1 µM
[4] = curve of first compound, second compound 3.16 µM
[5] = curve of first compound, second compound 10 µM
[6] = second compound 0.1 µM, first compound 0.000949 µM
[7] = second compound 0.1 µM, first compound 0.003 µM
[8] = second compound 0.1 µM, first compound 0.00949 µM
[9] = second compound 0.1 µM, first compound 0.03 µM
[10] = second compound 0.1 µM, first compound 0.0949 µM
[11] = second compound 0.1 µM, first compound 0.3 µM
[12] = second compound 0.316 µM, first compound 0.000949 µM
[13] = second compound 0.316 µM, first compound 0.003 µM
[14] = second compound 0.316 µM, first compound 0.00949 µM
[15] = second compound 0.316 µM, first compound 0.03 µM
[16] = second compound 0.316 µM, first compound 0.0949 µM
[17] = second compound 0.316 µM, first compound 0.3 µM
[18] = second compound 1 µM, first compound 0.000949 µM
[19] = second compound 1 µM, first compound 0.003 µM
[20] = second compound 1 µM, first compound 0.00949 µM
[21] = second compound 1 µM, first compound 0.03 µM
[22] = second compound 1 µM, first compound 0.0949 µM
[23] = second compound 1 µM, first compound 0.3 µM
[24] = second compound 3.16 µM, first compound 0.000949 µM
[25] = second compound 3.16 µM, first compound 0.003 µM
[26] = second compound 3.16 µM, first compound 0.00949 µM
[27] = second compound 3.16 µM, first compound 0.03 µM
[28] = second compound 3.16 µM, first compound 0.0949 µM
[29] = second compound 3.16 µM, first compound 0.3 µM
[30] = second compound 10 µM, first compound 0.000949 µM
[31] = second compound 10 µM, first compound 0.003 µM
[32] = second compound 10 µM, first compound 0.00949 µM
[33] = second compound 10 µM, first compound 0.03 µM
[34] = second compound 10 µM, first compound 0.0949 µM
[35] = second compound 10 µM, first compound 0.3 µM
[36] = second compound 0.1 µM, first compound 0.0316 µM
[37] = second compound 0.1 µM, first compound 0.1 µM
[38] = second compound 0.1 µM, first compound 0.316 µM
[39] = second compound 0.1 µM, first compound 1 µM
[40] = second compound 0.316 µM, first compound 0.0316 µM
[41] = second compound 0.316 µM, first compound 0.1 µM
[42] = second compound 0.316 µM, first compound 0.316 µM
[43] = second compound 0.316 µM, first compound 1 µM
[44] = second compound 1 µM, first compound 0.0316 µM
[45] = second compound 1 µM, first compound 0.1 µM
[46] = second compound 1 µM, first compound 0.316 µM
[47] = second compound 1 µM, first compound 1 µM
[48] = second compound 3.16 µM, first compound 0.0316 µM
[49] = second compound 3.16 µM, first compound 0.1 µM
[50] = second compound 3.16 µM, first compound 0.316 µM
[51] = second compound 3.16 µM, first compound 1 µM
[52] = second compound 10 µM, first compound 0.0316 µM
[53] = second compound 10 µM, first compound 0.1 µM
[54] = second compound 10 µM, first compound 0.316 µM
[55] = second compound 10 µM, first compound 1 µM

CC1COCCN1c1cc(-c2ccnn2C)c2ccnc(-c3ccn[nH]3)c2n1 (stereo unspecified)
viability, T/C (compound 0.00316 µM): 103% and 100%
viability, T/C (compound 0.01 µM): 82% and 81.8%
viability, T/C (compound 0.0316 µM): 36.7% and 37.3%
viability, T/C (compound 0.1 µM): 18.8% and 22.5%
viability, T/C (compound 0.316 µM): 14.9% and 16.1%
viability, T/C (compound 1 µM): 11.2% and 10.8%
IC50 (curve of compound): 22.8 nM and 23.4 nM

Nc1ncn(C2CC(O)C(CO)S2)c(=O)n1 (stereo unspecified) + NC1CC1c1ccc(-c2cccc(O)c2)cc1
IC50 [1]: 255 nM
IC50 [2]: 254 nM
IC50 [3]: 257 nM
IC50 [4]: 236 nM
IC50 [5]: 259 nM
viability, T/C [6]: 110%
viability, T/C [7]: 116%
viability, T/C [8]: 115%
viability, T/C [9]: 95.4%
viability, T/C [10]: 74.7%
viability, T/C [11]: 45.9%
viability, T/C [12]: 114%
viability, T/C [13]: 121%
viability, T/C [14]: 116%
viability, T/C [15]: 104%
viability, T/C [16]: 81.9%
viability, T/C [17]: 44.6%
viability, T/C [18]: 118%
viability, T/C [19]: 123%
viability, T/C [20]: 119%
viability, T/C [21]: 105%
viability, T/C [22]: 81.8%
viability, T/C [23]: 44.8%
viability, T/C [24]: 114%
viability, T/C [25]: 106%
viability, T/C [26]: 125%
viability, T/C [27]: 109%
viability, T/C [28]: 78.7%
viability, T/C [29]: 42.5%
viability, T/C [30]: 104%
viability, T/C [31]: 110%
viability, T/C [32]: 118%
viability, T/C [33]: 105%
viability, T/C [34]: 87.9%
viability, T/C [35]: 44.5%

CC1(C)CCC(CN2CCN(c3ccc(C(=O)NS(=O)(=O)c4ccc(NCC5CCOCC5)c([N+](=O)[O-])c4)c(Oc4cnc5[nH]ccc5c4)c3)CC2)=C(c2ccc(Cl)cc2)C1
viability, T/C (compound 0.0316 µM): 103% and 98.6%
viability, T/C (compound 0.1 µM): 107% and 105%
viability, T/C (compound 0.316 µM): 97.5% and 95.6%
viability, T/C (compound 1 µM): 93% and 88.7%
viability, T/C (compound 3.16 µM): 74.2% and 67.7%
viability, T/C (compound 10 µM): 6.84% and 8.34%
IC50 (curve of compound): 4720 nM and 4390 nM

CC(C)c1c(-c2ccccc2)nc2c(C#N)c[nH]n2c1=O + NC1CC1c1ccc(-c2cccc(O)c2)cc1
IC50 [1]: > 10000 nM
IC50 [2]: > 10000 nM
IC50 [3]: > 10000 nM
IC50 [4]: > 10000 nM
IC50 [5]: > 10000 nM
viability, T/C [36]: 98%
viability, T/C [37]: 113%
viability, T/C [38]: 106%
viability, T/C [39]: 102%
viability, T/C (second compound 0.1 µM, first compound 3.16 µM): 104%
viability, T/C (second compound 0.1 µM, first compound 10 µM): 108%
viability, T/C [40]: 104%
viability, T/C [41]: 101%
viability, T/C [42]: 101%
viability, T/C [43]: 107%
viability, T/C (second compound 0.316 µM, first compound 3.16 µM): 99.1%
viability, T/C (second compound 0.316 µM, first compound 10 µM): 97.4%
viability, T/C [44]: 93.4%
viability, T/C [45]: 101%
viability, T/C [46]: 95.6%
viability, T/C [47]: 99.5%
viability, T/C (second compound 1 µM, first compound 3.16 µM): 89%
viability, T/C (second compound 1 µM, first compound 10 µM): 98%
viability, T/C [48]: 97.4%
viability, T/C [49]: 94%
viability, T/C [50]: 97.5%
viability, T/C [51]: 94.7%
viability, T/C (second compound 3.16 µM, first compound 3.16 µM): 94.9%
viability, T/C (second compound 3.16 µM, first compound 10 µM): 98.5%
viability, T/C [52]: 86.7%
viability, T/C [53]: 92%
viability, T/C [54]: 91.3%
viability, T/C [55]: 97.4%
viability, T/C (second compound 10 µM, first compound 3.16 µM): 96.1%
viability, T/C (second compound 10 µM, first compound 10 µM): 94.9%

COc1cc(Nc2ncc3c(n2)-c2ccc(Cl)cc2C(c2c(F)cccc2OC)=NC3)ccc1C(=O)O + NC1CCC(NC2CC2c2ccccc2)CC1
IC50 [1]: 256 nM
IC50 [2]: 454 nM
IC50 [3]: 415 nM
IC50 [4]: 291 nM
IC50 [5]: 523 nM
viability, T/C (second compound 0.1 µM, first compound 0.00316 µM): 86.1%
viability, T/C (second compound 0.1 µM, first compound 0.01 µM): 72.4%
viability, T/C [36]: 66.2%
viability, T/C [37]: 56%
viability, T/C [38]: 47.7%
viability, T/C [39]: 43.2%
viability, T/C (second compound 0.316 µM, first compound 0.00316 µM): 89.6%
viability, T/C (second compound 0.316 µM, first compound 0.01 µM): 80.1%
viability, T/C [40]: 74.5%
viability, T/C [41]: 63%
viability, T/C [42]: 50.5%
viability, T/C [43]: 45.9%
viability, T/C (second compound 1 µM, first compound 0.00316 µM): 80.2%
viability, T/C (second compound 1 µM, first compound 0.01 µM): 78.3%
viability, T/C [44]: 73.4%
viability, T/C [45]: 55.5%
viability, T/C [46]: 57.1%
viability, T/C [47]: 40.9%
viability, T/C (second compound 3.16 µM, first compound 0.00316 µM): 83.1%
viability, T/C (second compound 3.16 µM, first compound 0.01 µM): 70%
viability, T/C [48]: 73.1%
viability, T/C [49]: 55.1%
viability, T/C [50]: 51%
viability, T/C [51]: 39.1%
viability, T/C (second compound 10 µM, first compound 0.00316 µM): 73%
viability, T/C (second compound 10 µM, first compound 0.01 µM): 64.3%
viability, T/C [52]: 72.3%
viability, T/C [53]: 61.5%
viability, T/C [54]: 56.8%
viability, T/C [55]: 42.1%

CCc1c2c(nc3ccc(O)cc13)-c1cc3c(c(=O)n1C2)COC(=O)[C@]3(O)CC + NC1CC1c1ccc(-c2cccc(O)c2)cc1
IC50 [1]: < 0.949 nM
IC50 [2]: < 0.949 nM
IC50 [3]: < 0.949 nM
IC50 [4]: < 0.949 nM
IC50 [5]: < 0.949 nM
viability, T/C [6]: 39.9%
viability, T/C [7]: 34.3%
viability, T/C [8]: 23.6%
viability, T/C [9]: 0.69%
viability, T/C [10]: 0.04%
viability, T/C [11]: 0.13%
viability, T/C [12]: 37.5%
viability, T/C [13]: 36.1%
viability, T/C [14]: 25.2%
viability, T/C [15]: 1.05%
viability, T/C [16]: 0.04%
viability, T/C [17]: 0.13%
viability, T/C [18]: 42.8%
viability, T/C [19]: 31.7%
viability, T/C [20]: 23.8%
viability, T/C [21]: 0.94%
viability, T/C [22]: 0.05%
viability, T/C [23]: 0.13%
viability, T/C [24]: 43%
viability, T/C [25]: 32%
viability, T/C [26]: 24.8%
viability, T/C [27]: 1.16%
viability, T/C [28]: 0.06%
viability, T/C [29]: 0.51%
viability, T/C [30]: 41%
viability, T/C [31]: 30.1%
viability, T/C [32]: 23.3%
viability, T/C [33]: 0.83%
viability, T/C [34]: 0.14%
viability, T/C [35]: 0.99%

Nc1ncn(C2CC(O)C(CO)S2)c(=O)n1 (stereo unspecified) + NC1CCC(NC2CC2c2ccccc2)CC1
IC50 [1]: 154 nM
IC50 [2]: 146 nM
IC50 [3]: 113 nM
IC50 [4]: 74 nM
IC50 [5]: 48.4 nM
viability, T/C [6]: 101%
viability, T/C [7]: 92.5%
viability, T/C [8]: 88.6%
viability, T/C [9]: 87.5%
viability, T/C [10]: 62.1%
viability, T/C [11]: 31.5%
viability, T/C [12]: 95.1%
viability, T/C [13]: 98.7%
viability, T/C [14]: 98%
viability, T/C [15]: 95.2%
viability, T/C [16]: 58.4%
viability, T/C [17]: 36%
viability, T/C [18]: 90.4%
viability, T/C [19]: 94.9%
viability, T/C [20]: 91.6%
viability, T/C [21]: 81.7%
viability, T/C [22]: 54.4%
viability, T/C [23]: 26.2%
viability, T/C [24]: 85.1%
viability, T/C [25]: 83.5%
viability, T/C [26]: 90.6%
viability, T/C [27]: 75.8%
viability, T/C [28]: 43%
viability, T/C [29]: 23.7%
viability, T/C [30]: 74.5%
viability, T/C [31]: 81.7%
viability, T/C [32]: 76.1%
viability, T/C [33]: 67.2%
viability, T/C [34]: 25.9%
viability, T/C [35]: 14.3%

Nc1ccccc1NC(=O)c1ccc(CNC(=O)OCc2cccnc2)cc1
viability, T/C (compound 0.00949 µM): 91.2% and 95%
viability, T/C (compound 0.03 µM): 84.3% and 96.3%
viability, T/C (compound 0.0949 µM): 81.4% and 80.8%
viability, T/C (compound 0.3 µM): 53.1% and 62%
viability, T/C (compound 0.949 µM): 19.8% and 24.2%
viability, T/C (compound 3 µM): 1.79% and 6.46%
IC50 (curve of compound): 342 nM and 416 nM
